Tests used:
[1] = Fluorescence lifetimes in solvents, two-photon excitation with TCSPC; type: physicochemical; conditions: for Fluorescence lifetime τ: 20° C., two-photon excitation 620-630 nm
Protocol: Fluorescence lifetimes were determined using 2PE at 630 nm with the microscope TCSPC setup (overall time response of 25 ps fwhm) and produced the results shown in Table 1. […] Characterisation of the spectroscopic properties of these latter two compounds remains to be investigated further. […] In the very viscous environment provided by glycerol the lifetime increases further to 1180 ps. In the range of alkanols studied the lifetime is closely correlated with solvent viscosity as shown in the inset to FIG. 3. […] However it is clear that the measured lifetime has the potential to report on cellular environments in FLIM studies. For E-CA4F similar trends are observed, but the overall differences in both lifetimes and quantum yields over the range of solvents are rather less than for E-CA4. The fluorescence lifetimes of E-CA4F are confined to a narrower range having values ranging from 440 ps in methanol through 740 ps in hexane to 1070 ps in glycerol. The more pronounced solvent dependence for E-CA4 no doubt reflects the more polar nature of the molecule compared with E-CA4F. The relative polarities may be judged from the partition coefficients (P) calculated according to the method of Brown et al..

[2] = Fluorescence quantum yields in solvents, UV one-photon excitation; type: physicochemical; conditions: 20° C., 290-300 nm excitation
Protocol: Absorption spectra were measured in either a Perkin Elmer Lambda 25 or 950 spectrophotometer. Fluorescence measurements were made with either a Spex Fluoromax or Varian Cary Eclipse spectrofluorimeter using the spectral correction curves supplied by the manufacturers. Fluorescence quantum yields with UV (one-photon) excitation were determined using either 2-aminopyridine (Φref 0.6 [7]) or 9-chloroanthracene (Φref 0.50 in dichloromethane, determined here relative to 9,10-diphenylanthracene in cyclohexane (Φref 0.97) and anthracene in ethanol (Φref 0.28 [8]) as standards. Fluorescence quantum yields were determined from the relative slopes of plots of integrated fluorescence intensity versus (1-10^−A) for samples having absorbance A≦0.1. The square of the refractive index (n^2) correction was applied when sample and reference compounds were in different solvents. Irradiation of the samples was minimized by the use of narrow excitation slits to reduce simultaneous photoisomerization.
The fluorescence quantum yields for E-CA4F were generally somewhat higher than for E-CA4.

[3] = Two-photon absorption cross section using reference fluorophore 9-chloroanthracene; type: physicochemical; conditions: at 620 nm, DCM
Excerpt: Cell images were overlaid using Adobe Photoshop CS3.
Published cross sections for two photon absorption (σ2, the probability of an absorption process or photon interaction) typically show large variations depending on the method of measurement, using either the Z-scan method or a reference fluorophore, and the power range and pulse duration of the laser used for excitation. We have attempted to determine values of σ2 for E-CA4 and E-ACA4 using a reference fluorophore. 9-Chloroanthracene (9CIA) was selected as a standard fluorophore with an appropriate fluorescence spectrum and for which 2PE cross-sections are available. The values of σ2 at 620 nm for E-CA4 and E-CA4F in DCM were determined to be 2.1±0.5 and 2.75±0.6 GM units respectively. […] Values of σ2 at 620 nm for E-ACA and E-DMAC were both 5.7±1.2. These larger values may be consistent with some charge transfer character of the excitation of these compounds.

HeLa cells = test: Fluorescence lifetime imaging (FLIM) of uptake and intracellular concentration in HeLa cells; conditions: HeLa cells, 100 μM added
Protocol: (§1) Both HeLa and Chinese hamster ovary (CHO) cells were obtained from the European Collection of Cell Cultures. HeLa cells were cultured in MEM medium (Gibco) containing 10% foetal calf serum, penicillin (100 units/mL), streptomycin (100 μg/mL) and glutamine (2 mM). CHO cells were cultured in DMEM (Gibco) with the same additions as for the HeLa cells. For microscopy the adherent cell cultures were grown in 35 mm diameter glass-bottom culture dishes with optical quality glass (MatTek Corporation) and incubated at 37° C. in a humidified atmosphere containing 5% CO2. Human umbilical vein endothelial cells (HUVECs) were obtained from TCS Cellworks. HUVECs were sub-cultured in basal medium (TCS Cellworks) supplemented with antibiotic supplement/amphotericin-B, following the detailed guidelines provided by TCS Cellworks.
The fluorescence lifetime imaging system with multiphoton excitation employed lasers for multiphoton excitation consisting of a Ti:Sapphire laser, tuneable between 700 and 1000 nm and providing ca 180 fs pulses at 76 MHz, and an optical parametric oscillator (OPO) pumped by a second Ti:Sapphire laser source. Using the doubled idler output of the OPO, useful energies (>200 mW) could be obtained between 550 and 640 nm. Samples were excited on the stage of Nikon TE2000U inverted microscope using a water immersion ×60 objective of NA 1.2. Using the various microscope ports it was possible to record the fluorescence in a number of ways. The fluorescence signal at one port was relayed to a spectrometer (Acton 275) and CCD setup (Andor iDUS) so that emission spectra and intensities could be recorded. Alternatively the fluorescence signal could be routed via a second port to a time-correlated single photon counting (TCSPC) system (Becker and Hickl SPC-830) allowing fluorescence lifetime measurements and fluorescence lifetime imaging (FLIM), using Becker and Hickl software (SPCImage) for analysis. In FLIM mode the fluorescence was isolated by a suitable narrowband interference filter (400IU25 together with BG3 (Comar)). […] Two photon cross sections were determined using a reference fluorophore as a two photon standard as described by Mathai et al., employing published values of the two-photon cross section for 9-chloroanthracene.
Images of intracellular distribution of E-combretastatins in cell monolayers were obtained using fluorescence lifetime imaging, in which the rastered excitation laser beam dwells on each pixel for a few milliseconds and at each position records a nanosecond fluorescence lifetime decay curve using the time-correlated single photon counting method. […]
Quantification of fluorophore concentration from intensity measurements is often difficult.

[4] = test system: Chinese hamster ovary (CHO) cells; test: Fluorescence lifetime imaging (FLIM) of uptake and intracellular concentration in CHO cells
Protocol: as §1, with “HUVECs were sub-cultured in basal medium (TCS Cellworks) supplemented with antibiotic supplement/amphotericin-B, following the detailed guidelines provided by TCS Cellworks.” left out
The fluorescence lifetime imaging system with multiphoton excitation employed lasers for multiphoton excitation consisting of a Ti:Sapphire laser, tuneable between 700 and 1000 nm and providing ca 180 fs pulses at 76 MHz, and an optical parametric oscillator (OPO) pumped by a second Ti:Sapphire laser source. […] Using the various microscope ports it was possible to record the fluorescence in a number of ways. The fluorescence signal at one port was relayed to a spectrometer (Acton 275) and CCD setup (Andor iDUS) so that emission spectra and intensities could be recorded. […] In FLIM mode the fluorescence was isolated by a suitable narrowband interference filter (400IU25 together with BG3 (Comar)). […]

cells = conditions: typical toxicity assays; cited from earlier work
[5] = room temperature, approximately 10 minutes

With `COc1ccc(/C=C/c2cc(OC)c(OC)c(OC)c2)cc1O` [E-CA4, (E)-1-(3′,4′,5′-Trimethoxyphenyl)-2-(4″-methoxy-3″-hydroxy-phenyl)ethene] the “Fluorescence lifetime τ” value ([1]; DCM, ne = non-exponential) was 0.50 ns, the “Fluorescence lifetime τ” value ([1]; DMSO) was 0.49 ns and the “Fluorescence lifetime τ” value ([1]; EtOH, ne = non-exponential) was 0.28 ns. For the same molecule, the “Fluorescence lifetime τ” value ([1]; Ethylene glycol, ne = non-exponential) was 0.58 ns, the “Fluorescence lifetime τ” value ([1]; Glycerol, ne = non-exponential) was 1.18 ns and the “Fluorescence lifetime τ” value ([1]; Hexane) was 0.86 ns. The “Fluorescence lifetime τ” value ([1]; MeCN, ne = non-exponential) was 0.29 ns, the “Fluorescence lifetime τ” value ([1]; MeOH, ne = non-exponential) was 0.23 ns and the Fluorescence lifetime ([1]; acetonitrile) was “around 220 ps”. For the same molecule, the Fluorescence lifetime ([1]; as shown in FIG. 10, compared with TRIR in dichloromethane) was 500 ps, the Fluorescence lifetime ([1]; glycerol) was 1180 ps and the Fluorescence lifetime ([1]; hexane) was 855 ps. For the same molecule, the “Fluorescence quantum yield φ” value ([2]; DCM) was 0.19, the “Fluorescence quantum yield φ” value ([2]; DMSO) was 0.15 and the “Fluorescence quantum yield φ” value ([2]; EtOH) was 0.093. For the same molecule, the “Fluorescence quantum yield φ” value ([2]; Ethylene glycol) was 0.19, the “Fluorescence quantum yield φ” value ([2]; Glycerol) was 0.35 and the “Fluorescence quantum yield φ” value ([2]; Hexane) was 0.36. The “Fluorescence quantum yield φ” value ([2]; MeCN) was 0.099, the “Fluorescence quantum yield φ” value ([2]; MeOH) was 0.071 and the “Two photon absorption cross section σ2” value [3] was 2.1±0.5 GM units. For the same molecule, the “Intracellular concentration as times the concentration in the medium” value (HeLa cells) was 20-40 times, the “Intracellular concentration, smaller regions” value (HeLa cells; [5]) was greater than 4 mM and the “Intracellular concentration, substantial regions of the cell cytoplasm” value (HeLa cells; [5]) was greater than 2 mM. For the same molecule, the “Concentrating of the drug, factor relative to the surrounding medium” value ([4]; 10 μM in the medium) was 25-75 times, the Intracellular distribution ([4]; 10 μmol dm^−3, 2PE 628 nm) was “located mainly within the cytoplasmic region of the cell” and the “Concentrations required to kill cells” value (cells) was “micromolar”.

Reference: US20150359884A1, “MULTI-PHOTON ISOMERISATION OF COMBRETASTATINS AND THEIR USE IN THERAPY” (priority 2011, published 2015)
